We go through 36 molecules from patent publication US20250129028A1, “COMPOUNDS AND METHODS FOR YAP/TEAD MODULATION AND INDICATIONS THEREFOR” (Opna Bio SA, priority 2022, published 2025).

The assay relates to TEAD-dependent transcription. As to the kind of experiment: TEAD-dependent transcription cell-based reporter assay (MSTO-211H+12XGTIIC luciferase). Also noted: species or system human. Particulars: Homo sapiens; MSTO-211H+12XGTIIC cell line, luciferase signal normalized to cell viability, 24 hours compound incubation; read-out: MSTO-211H GMean IC50 (uM) Cell Assay Reporter Cell Variant: TEAD. An outline of the steps:
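MSTO-211H mesothelioma cells stably carrying a 12xGTIIC TEAD-response-element luciferase reporter, treated with serial compound dilutions for 24 h at 37 °C. Luminescence normalized to CellTiter-Fluor viability signal; % inhibition versus DMSO and 20 μM K-975 controls, IC50 by nonlinear regression.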
`CC(C)S(=O)(=O)N1CCc2c(cccc2Oc2ccc(C(F)(F)F)cc2)C1` [P-0235, 2-(isopropylsulfonyl)-5-(4-(trifluoromethyl)phen-oxy)-1,2,3,4-tetrahydro-isoquinoline]: the IC50 lay in the range of 0.001 to 10 µM.
For `O=S(=O)(C1CCCC1)N1CCc2c(cccc2Oc2ccc(C(F)(F)F)cc2)C1` [P-0236, 2-(cyclopentylsulfonyl)-5-(4-(trifluoromethyl)-phenoxy)-1,2,3,4-tetra-hydroisoquinoline] the value was 0.001 to 10 µM; for `O=C(Nc1ccccc1)N1CCc2c(cccc2Oc2ccc(C(F)(F)F)cc2)C1` [P-0237, N-phenyl-5-(4-(trifluoro-methyl)phenoxy)-3,4-dihydroisoquinoline-2(1H)-carboxamide], 0.001 to 10 µM.
For `CCS(=O)(=O)NC(=O)N1CCc2c(cccc2Oc2ccc(C(F)(F)F)cc2)C1` [P-0238, N-(ethylsulfonyl)-5-(4-(trifluoromethyl)phen-oxy)-3,4-dihydroisoquin-oline-2(1H)-carboxamide] the value was 0.001 to 10 µM.
Under `N#CCCC(=O)N1CCc2c(cccc2Oc2ccc(C(F)(F)F)cc2)C1` [P-0239, 4-oxo-4-(5-(4-(trifluoromethyl)phenoxy)-3,4-dihydroisoquinolin-2(1H)-yl)butanenitrile] stands 0.001 to 10 µM.
Consider `Nc1nc(C(=O)N2CCc3c(cccc3Oc3ccc(C(F)(F)F)cc3)C2)cs1` [P-0240, (2-aminothiazol-4-yl)(5-(4-(trifluoromethyl)phen-oxy)-3,4-dihydroisoquin-olin-2(1H)-yl)methanone], for which the IC50 lay in the range of 0.001 to 10 µM.
For `O=C(Cc1ccn[nH]1)N1CCc2c(cccc2Oc2ccc(C(F)(F)F)cc2)C1` [P-0241, 2-(1H-pyrazol-5-yl)-1-(5-(4-(trifluoromethyl)-phenoxy)-3,4-dihydroiso-quinolin-2(1H)-yl)ethan-1-one] the value was 0.001 to 10 µM; for `O=C(Cc1cnc[nH]1)N1CCc2c(cccc2Oc2ccc(C(F)(F)F)cc2)C1` [P-0242, 2-(1H-imidazol-5-yl)-1-(5-(4-(trifluoromethyl)-phenoxy)-3,4-dihydroiso-quinolin-2(1H)-yl)ethan-1-one], 0.001 to 10 µM; for `O=C(CCc1cnc[nH]1)N1CCc2c(cccc2Oc2ccc(C(F)(F)F)cc2)C1` [P-0243, 3-(1H-imidazol-5-yl)-1-(5-(4-(trifluoromethyl)-phenoxy)-3,4-dihydroiso-quinolin-2(1H)-yl)pro-pan-1-one], 0.001 to 10 µM.
Under `Nc1cncc(C(=O)N2CCc3c(cccc3Oc3ccc(C(F)(F)F)cc3)C2)n1` [P-0244, (6-aminopyrazin-2-yl)(5-(4-(trifluoromethyl)phen-oxy)-3,4-dihydroisoquin-olin-2(1H)-yl)methanone] stands 0.001 to 10 µM; under `Nc1ccc(C(=O)N2CCc3c(cccc3Oc3ccc(C(F)(F)F)cc3)C2)cn1` [P-0245, (6-aminopyridin-3-yl)(5-(4-(trifluoromethyl)phen-oxy)-3,4-dihydroisoquin-olin-2(1H)-yl)methanone], 0.001 to 10 µM.
With `O=C(Cc1cocn1)N1CCc2c(cccc2Oc2ccc(C(F)(F)F)cc2)C1` [P-0246, 2-(oxazol-4-yl)-1-(5-(4-(trifluoromethyl)phen-oxy)-3,4-dihydroisoquin-olin-2(1H)-yl)ethan-1-one], the IC50 lay within 0.001 to 10 µM.
Under `O=C(Cc1cn[nH]c1)N1CCc2c(cccc2Oc2ccc(C(F)(F)F)cc2)C1` [P-0247, 2-(1H-pyrazol-4-yl)-1-(5-(4-(trifluoromethyl)-phenoxy)-3,4-dihydroiso-quinolin-2(1H)-yl)ethan-1-one] stands 0.001 to 10 µM.
For `O=C(CCc1cn[nH]c1)N1CCc2c(cccc2Oc2ccc(C(F)(F)F)cc2)C1` [P-0248, 3-(1H-pyrazol-4-yl)-1-(5-(4-(trifluoromethyl)-phenoxy)-3,4-dihydro-isoquinolin-2(1H)-yl)pro-pan-1-one] the value was 0.001 to 10 µM; for `O=C(CCc1ncc[nH]1)N1CCc2c(cccc2Oc2ccc(C(F)(F)F)cc2)C1` [P-0249, 3-(1H-imidazol-2-yl)-1-(5-(4-(trifluoromethyl)-phenoxy)-3,4-dihydro-isoquinolin-2(1H)-yl)pro-pan-1-one], 0.001 to 10 µM.
`O=C(CCn1cnnc1)N1CCc2c(cccc2Oc2ccc(C(F)(F)F)cc2)C1` [P-0250, 3-(4H-1,2,4-triazol-4-yl)-1-(5-(4-(trifluoromethyl)-phenoxy)-3,4-dihydro-isoquinolin-2(1H)-yl)-propan-1-one]: the IC50 lay in the range of 0.001 to 10 µM.
For `O=C(Cc1nnc[nH]1)N1CCc2c(cccc2Oc2ccc(C(F)(F)F)cc2)C1` [P-0251, 2-(4H-1,2,4-triazol-3-yl)-1-(5-(4-(trifluoromethyl)-phenoxy)-3,4-dihydroiso-quinolin-2(1H)-yl)ethan-1-one] the value was 0.001 to 10 µM; for `O=C(Cc1cn[nH]c1O)N1CCc2c(cccc2Oc2ccc(C(F)(F)F)cc2)C1` [P-0252, 2-(5-hydroxy-1H-pyr-azol-4-yl)-1-(5-(4-(trifluoromethyl)phen-oxy)-3,4-dihydroisoquin-olin-2(1H)-yl)ethan-1-one], 0.001 to 10 µM; for `C=CC(=O)N1CCC(C(=O)N2CCc3c(cccc3Oc3ccc(C(F)(F)F)cc3)C2)C1` (stereo not drawn) [P-0253, 1-(3-(5-(4-(trifluorometh-yl)phenoxy)-1,2,3,4-tetrahydroisoquinoline-2-carbonyl)pyrrolidin-1-yl)prop-2-en-1-one], 0.001 to 10 µM.
On to `O=C(CCS(=O)(=O)C(F)(F)F)N1CCc2c(cccc2Oc2ccc(C(F)(F)F)cc2)C1` [P-0254, 1-(5-(4-(trifluorometh-yl)phenoxy)-3,4-dihydro-isoquinolin-2(1H)-yl)-3-((trifluoromethyl)sul-fonyl)propan-1-one], for which the IC50 lay within 0.001 to 10 µM.
In the case of `C=CC(=O)N1CC(C(=O)N2CCc3c(cccc3Oc3ccc(C(F)(F)F)cc3)C2)C1` [P-0255, 1-(3-(5-(4-(trifluorometh-yl)phenoxy)-1,2,3,4-tetrahydroisoquinoline-2-carbonyl)azetidin-1-yl)prop-2-en-1-one], the IC50 fell in the range of 0.001 to 10 µM.
As for `NC(=O)N1CCC(C(=O)N2CCc3c(cccc3Oc3ccc(C(F)(F)F)cc3)C2)C1` (stereo not drawn) [P-0256, 3-(5-(4-(trifluorometh-yl)phenoxy)-1,2,3,4-tetrahydroisoquinoline-2-carbonyl)pyrrolidine-1-carboxamide], the IC50 was 0.001 to 10 µM.
For `CN(C)CCCC(=O)N1CCc2c(cccc2Oc2ccc(C(F)(F)F)cc2)C1` [P-0263, 4-(dimethylamino)-1-(5-(4-(trifluoromethyl)phen-oxy)-3,4-dihydroisoquin-olin-2(1H)-yl)butan-1-one] the value was 0.001 to 10 µM.
Under `CC(C)(O)CC(=O)N1CCc2c(cccc2Oc2ccc(C(F)(F)F)cc2)C1` [P-0264, 3-hydroxy-3-methyl-1-(5-(4-(trifluoromethyl)-phenoxy)-3,4-dihydroiso-quinolin-2(1H)-yl)butan-1-one] stands 0.001 to 10 µM; under `C[C@H](NC(=O)N1CCc2c(cccc2Oc2ccc(C(F)(F)F)cc2)C1)C1CC1` [P-0265, (S)-N-(1-cyclopropyl-ethyl)-5-(4-(trifluoro-methyl)phenoxy)-3,4-dihydroisoquinoline-2(1H)-carboxamide], 0.001 to 10 µM; under `COCC(C)NC(=O)N1CCc2c(cccc2Oc2ccc(C(F)(F)F)cc2)C1` (stereo not drawn) [P-0266, N-(1-methoxypropan-2-yl)-5-(4-(trifluorometh-yl)phenoxy)-3,4-dihydro-isoquinoline-2(1H)-carboxamide], 0.001 to 10 µM.
As for `O=C(CC1CCCCC1)N1CCc2c(cccc2Oc2ccc(C(F)(F)F)cc2)C1` [P-0267, 2-cyclohexyl-1-(5-(4-(trifluoromethyl)phen-oxy)-3,4-dihydroisoquin-olin-2(1H)-yl)ethan-1-one], the IC50 lay in the range of 10 to 100 µM.
Under `C[C@@H](CO)NC(=O)N1CCc2c(cccc2Oc2ccc(C(F)(F)F)cc2)C1` [P-0268, (S)-N-(1-hydroxypropan-2-yl)-5-(4-(trifluorometh-yl)phenoxy)-3,4-dihydro-isoquinoline-2(1H)-carboxamide] stands 0.001 to 10 µM; under `CS(=O)(=O)CCC(=O)N1CCc2c(cccc2Oc2ccc(C(F)(F)F)cc2)C1` [P-0269, 3-(methylsulfonyl)-1-(5-(4-(trifluoromethyl)phen-oxy)-3,4-dihydroisoquin-olin-2(1H)-yl)propan-1-one], 0.001 to 10 µM.
`NC(=O)NCC(=O)N1CCc2c(cccc2Oc2ccc(C(F)(F)F)cc2)C1` [P-0270, 1-(2-oxo-2-(5-(4-(trifluoromethyl)phen-oxy)-3,4-dihydroisoquin-olin-2(1H)-yl)ethyl)urea]: the IC50 fell in the range of 0.001 to 10 µM.
Take `CS(=O)(=O)CCC(=O)N1CCc2c(cccc2-c2ccc(C(F)(F)F)cc2)C1` [P-0271, 3-(methylsulfonyl)-1-(5-(4-(trifluoromethyl)phen-yl)-3,4-dihydroisoquin-olin-2(1H)-yl)propan-1-one]: the IC50 lay in the range of 0.001 to 10 µM.
As for `NC(=O)NCC(=O)N1CCc2c(cccc2-c2ccc(C(F)(F)F)cc2)C1` [P-0272, 1-(2-oxo-2-(5-(4-(trifluoromethyl)phen-yl)-3,4-dihydroisoquin-olin-2(1H)-yl)ethyl)urea], the IC50 lay within 0.001 to 10 µM.
For `N#CCCC(=O)N1CCc2c(cccc2-c2ccc(C(F)(F)F)cc2)C1` [P-0273, 4-oxo-4-(5-(4-(trifluoromethyl)phenyl)-3,4-dihydroisoquinolin-2(1H)-yl)butanenitrile], the 50% inhibitory concentration (IC50) lay within 0.001 to 10 µM.
Turning to `Nc1nc(C(=O)N2CCc3c(cccc3-c3ccc(C(F)(F)F)cc3)C2)cs1` [P-0274], the half-maximal inhibitory concentration (IC50) is 0.001 to 10 µM.
Regarding `O=C(Cc1cnc[nH]1)N1CCc2c(cccc2-c2ccc(C(F)(F)F)cc2)C1` [P-0275, 2-(1H-imidazol-5-yl)-1-(5-(4-(trifluoromethyl)-phenyl)-3,4-dihydroiso-quinolin-2(1H)-yl)ethan-1-one], the IC50 was 0.001 to 10 µM.
In the case of `CS(=O)(=O)CCNC(=O)N1CCc2c(cccc2-c2ccc(C(F)(F)F)cc2)C1` [P-0276, N-(2-(methylsulfonyl)-ethyl)-5-(4-(trifluoro-methyl)phenyl)-3,4-dihydroisoquinoline-2(1H)-carboxamide], the IC50 is 0.001 to 10 µM.
